# Assay results from article PMC5218480 (PLoS ONE, 2017).
# Test system: MV-4-11 cells
# Assay: Gene expression microarray analysis (Affymetrix PrimeView) and GSEA
# Type: cell-based, human
# Design: RFU PODN (11730768_x_at) / Fold change /veh PODN (11730768_x_at) / RFU LINC00158 (11744669_a_at) / Fold change /veh LINC00158 (11744669_a_at) / RFU DUSP10 (11751237_a_at) / Fold change /veh DUSP10 (11751237_a_at) / RFU ID3 (11757404_x_at) / Fold change /veh ID3 (11757404_x_at) / RFU PLEKHG5 (11737974_s_at) / Fold change /veh PLEKHG5 (11737974_s_at) / RFU LRRC4B (11730491_at) / Fold change /veh LRRC4B (11730491_at) / RFU GIMAP4 (11747438_a_at) / Fold change /veh GIMAP4 (11747438_a_at) / RFU KRT8 (11758183_x_at) / Fold change /veh KRT8 (11758183_x_at) / RFU CNN1 (11734310_a_at) / Fold change /veh CNN1 (11734310_a_at) / RFU VPS37D (11726825_at) / Fold change /veh VPS37D (11726825_at) / RFU C10orf10 (11716522_x_at) / Fold change /veh C10orf10 (11716522_x_at) / RFU KIR2DL2 /// KIR2DL4 /// KIR2DL5A /// KIR2DL5B /// KIR2DS1 /// KIR2DS2 /// KIR2DS3 /// KIR2DS4 /// KIR3DL3 /// KIR3DL3 /// KIR3DS1 (11738374_at) / Fold change /veh KIR2DL2 /// KIR2DL4 /// KIR2DL5A /// KIR2DL5B /// KIR2DS1 /// KIR2DS2 /// KIR2DS3 /// KIR2DS4 /// KIR3DL3 /// KIR3DL3 /// KIR3DS1 (11738374_at) / RFU C1QL1 (11718748_at) / Fold change /veh C1QL1 (11718748_at) / RFU TMPRSS4 (11747572_a_at) / Fold change /veh TMPRSS4 (11747572_a_at) / RFU HAMP (11756126_x_at) / Fold change /veh HAMP (11756126_x_at) / RFU RNFT2 (11725882_a_at) / Fold change /veh RNFT2 (11725882_a_at) / RFU NR4A2 (11747474_a_at) / Fold change /veh NR4A2 (11747474_a_at) / RFU ABCC12 (11746883_a_at) / Fold change /veh ABCC12 (11746883_a_at) / RFU TMEM136 (11760407_x_at) / Fold change /veh TMEM136 (11760407_x_at) / RFU CLDN22 /// WWC2 (11732394_at) / Fold change /veh CLDN22 /// WWC2 (11732394_at) / RFU HLA-DPB1 (11760878_x_at) / Fold change /veh HLA-DPB1 (11760878_x_at) / RFU SPINT1 (11716480_a_at) / Fold change /veh SPINT1 (11716480_a_at) / RFU GAP43 (11754022_s_at) / Fold change /veh GAP43 (11754022_s_at) / RFU A4GNT (11735810_at) / Fold change /veh A4GNT (11735810_at) / RFU PRB3 (11715151_x_at) / Fold change /veh PRB3 (11715151_x_at) / RFU TUBB4B (11761932_at) / Fold change /veh TUBB4B (11761932_at) / RFU CAPN14 (11732068_a_at) / Fold change /veh CAPN14 (11732068_a_at) / RFU TMCC2 (11721928_a_at) / Fold change /veh TMCC2 (11721928_a_at) / RFU IRGQ (11745062_a_at) / Fold change /veh IRGQ (11745062_a_at) / RFU FAM174B (11720279_a_at) / Fold change /veh FAM174B (11720279_a_at) / RFU TMPRSS4 (11748680_a_at) / Fold change /veh TMPRSS4 (11748680_a_at) / RFU FAM212B (11763350_a_at) / Fold change /veh FAM212B (11763350_a_at) / RFU PLEKHG5 (11743358_a_at) / Fold change /veh PLEKHG5 (11743358_a_at) / RFU ZSCAN30 (11745921_a_at) / Fold change /veh ZSCAN30 (11745921_a_at) / RFU CMKLR1 (11741424_a_at) / Fold change /veh CMKLR1 (11741424_a_at) / RFU LOC101060620 /// MAPK8IP1 (11723275_at) / Fold change /veh LOC101060620 /// MAPK8IP1 (11723275_at) / RFU SPTSSB (11747773_x_at) / Fold change /veh SPTSSB (11747773_x_at) / RFU PRSS12 (11739890_at) / Fold change /veh PRSS12 (11739890_at) / RFU BIN1 (11741810_x_at) / Fold change /veh BIN1 (11741810_x_at) / RFU WNT11 (11732464_a_at) / Fold change /veh WNT11 (11732464_a_at) / RFU C10orf10 (11716521_a_at) / Fold change /veh C10orf10 (11716521_a_at) / RFU C5orf56 (11738089_at) / Fold change /veh C5orf56 (11738089_at) / RFU CYB561 (11721691_x_at) / Fold change /veh CYB561 (11721691_x_at) / RFU ANKRD19P (11752326_a_at) / Fold change /veh ANKRD19P (11752326_a_at) / RFU OR2T12 /// OR2T33 /// OR2T8 (11738714_s_at) / Fold change /veh OR2T12 /// OR2T33 /// OR2T8 (11738714_s_at) / RFU VCAN (11748164_a_at) / Fold change /veh VCAN (11748164_a_at) / RFU JSRP1 (11732532_at) / Fold change /veh JSRP1 (11732532_at) / RFU KRTAP10-11 (11738290_x_at) / Fold change /veh KRTAP10-11 (11738290_x_at) / RFU MYO3A (11730013_a_at) / Fold change /veh MYO3A (11730013_a_at) / RFU EBF3 (11725865_a_at) / Fold change /veh EBF3 (11725865_a_at) / RFU CAMK2N1 (11719241_x_at) / Fold change /veh CAMK2N1 (11719241_x_at) / RFU C5orf56 (11738088_a_at) / Fold change /veh C5orf56 (11738088_a_at) / RFU OLFML3 (11715873_a_at) / Fold change /veh OLFML3 (11715873_a_at) / RFU LOC100653217 /// NTM (11731650_a_at) / Fold change /veh LOC100653217 /// NTM (11731650_a_at) / RFU MAPK11 (11762145_a_at) / Fold change /veh MAPK11 (11762145_a_at) / RFU FIZ1 (11724087_x_at) / Fold change /veh FIZ1 (11724087_x_at) / RFU OASL (11726364_x_at) / Fold change /veh OASL (11726364_x_at) / RFU SOX15 (11748057_x_at) / Fold change /veh SOX15 (11748057_x_at) / RFU CD79A (11719716_a_at) / Fold change /veh CD79A (11719716_a_at) / RFU HIST1H1D (11736915_at) / Fold change /veh HIST1H1D (11736915_at) / RFU CASKIN2 (11723855_a_at) / Fold change /veh CASKIN2 (11723855_a_at) / RFU LOC730098 (11760151_x_at) / Fold change /veh LOC730098 (11760151_x_at) / RFU OR4N2 (11742367_at) / Fold change /veh OR4N2 (11742367_at) / RFU PRRT2 (11749266_a_at) / Fold change /veh PRRT2 (11749266_a_at) / RFU SNX32 (11753110_a_at) / Fold change /veh SNX32 (11753110_a_at) / RFU CDHR5 (11726645_a_at) / Fold change /veh CDHR5 (11726645_a_at) / RFU RCAN1 (11760418_a_at) / Fold change /veh RCAN1 (11760418_a_at) / RFU FAM167A (11723789_a_at) / Fold change /veh FAM167A (11723789_a_at) / RFU FAM26E (11764081_at) / Fold change /veh FAM26E (11764081_at) / RFU ISYNA1 (11749810_s_at) / Fold change /veh ISYNA1 (11749810_s_at) / RFU ACY1 (11761880_at) / Fold change /veh ACY1 (11761880_at) / RFU 11764098_at / Fold change /veh 11764098_at / RFU SAMD14 (11745864_x_at) / Fold change /veh SAMD14 (11745864_x_at) / RFU NPB (11741838_a_at) / Fold change /veh NPB (11741838_a_at) / RFU TMPRSS6 (11731388_a_at) / Fold change /veh TMPRSS6 (11731388_a_at) / RFU KRTAP10-2 (11738614_at) / Fold change /veh KRTAP10-2 (11738614_at) / RFU ARHGAP8 /// PRR5-ARHGAP8 (11727945_x_at) / Fold change /veh ARHGAP8 /// PRR5-ARHGAP8 (11727945_x_at) / RFU KRTAP5-7 /// NADSYN1 (11734609_at) / Fold change /veh KRTAP5-7 /// NADSYN1 (11734609_at) / RFU RASL12 (11751679_a_at) / Fold change /veh RASL12 (11751679_a_at) / RFU CDKN2B (11736163_a_at) / Fold change /veh CDKN2B (11736163_a_at) / RFU PRF1 (11729649_at) / Fold change /veh PRF1 (11729649_at) / RFU, ZNF638 /// ZNF638-IT1 / Fold change vs veh, ZNF638 /// ZNF638-IT1 / RFU, PANK3 / Fold change vs veh, PANK3 / RFU, SH3YL1 / Fold change vs veh, SH3YL1 / RFU, ZEB2 / Fold change vs veh, ZEB2 / RFU, NRIP1 / Fold change vs veh, NRIP1 / RFU, PTTG1IP / Fold change vs veh, PTTG1IP / RFU, CAPN2 / Fold change vs veh, CAPN2 / RFU, MED14 / Fold change vs veh, MED14 / RFU, SNORA58 / Fold change vs veh, SNORA58 / RFU, C1orf63 / Fold change vs veh, C1orf63 / RFU, LRRFIP1 / Fold change vs veh, LRRFIP1 / RFU, NDUFAF7 / Fold change vs veh, NDUFAF7 / RFU, SLC12A2 / Fold change vs veh, SLC12A2 / RFU, IBTK / Fold change vs veh, IBTK / RFU, ESF1 / Fold change vs veh, ESF1 / Fold change vs veh, TMEM50B / RFU, TAOK1 / Fold change vs veh, TAOK1 / RFU, ACBD3 / Fold change vs veh, ACBD3 / RFU, TMA16 / Fold change vs veh, TMA16 / RFU, RWDD3 / Fold change vs veh, RWDD3 / RFU, BCAT1 / Fold change vs veh, BCAT1 / RFU, EDEM3 / Fold change vs veh, EDEM3 / RFU, TMEM33 / Fold change vs veh, TMEM33 / RFU, WDR75 / Fold change vs veh, WDR75 / RFU, AHCTF1 / Fold change vs veh, AHCTF1 / RFU, TFRC / Fold change vs veh, TFRC / RFU, ZDHHC17 / Fold change vs veh, ZDHHC17 / RFU, NOM1 / Fold change vs veh, NOM1 / RFU, ARL8B / Fold change vs veh, ARL8B / RFU, ZBTB11 / Fold change vs veh, ZBTB11 / RFU, TAMM41 / Fold change vs veh, TAMM41 / RFU, KIAA1704 /// LOC100996395 / Fold change vs veh, KIAA1704 /// LOC100996395 / RFU, ING1 / Fold change vs veh, ING1 / RFU, TRMT61B / Fold change vs veh, TRMT61B / RFU, FUBP3 / Fold change vs veh, FUBP3 / RFU, TP53 / Fold change vs veh, TP53 / RFU, TNKS2 / Fold change vs veh, TNKS2 / RFU, ZFP14 / Fold change vs veh, ZFP14 / RFU, ACTR2 / Fold change vs veh, ACTR2 / RFU, PPP3R1 / Fold change vs veh, PPP3R1 / RFU, PIK3R1 / Fold change vs veh, PIK3R1 / RFU, HNRNPA1 / Fold change vs veh, HNRNPA1 / RFU, RNF170 / Fold change vs veh, RNF170 / RFU, ZNF28 / Fold change vs veh, ZNF28 / RFU, RNGTT / Fold change vs veh, RNGTT / RFU, OGT / Fold change vs veh, OGT / RFU, BRD1 / Fold change vs veh, BRD1 / RFU, MARS / Fold change vs veh, MARS / RFU, ZNF655 / Fold change vs veh, ZNF655 / RFU, FAHD1 / Fold change vs veh, FAHD1 / RFU, BDP1 / Fold change vs veh, BDP1 / RFU, LRRCC1 / Fold change vs veh, LRRCC1 / RFU, ARID1A / Fold change vs veh, ARID1A / RFU, ZNF146 / Fold change vs veh, ZNF146 / RFU, ZNF330 / Fold change vs veh, ZNF330 / RFU, GPN3 / Fold change vs veh, GPN3 / RFU, C9orf123 / Fold change vs veh, C9orf123 / RFU, N4BP2L2 / Fold change vs veh, N4BP2L2 / RFU, ARFIP1 / Fold change vs veh, ARFIP1 / RFU, FAM179B / Fold change vs veh, FAM179B / RFU, BCL10 / Fold change vs veh, BCL10 / RFU, UHRF1BP1L / Fold change vs veh, UHRF1BP1L / RFU, BET1 / Fold change vs veh, BET1 / RFU, CNOT2 / Fold change vs veh, CNOT2 / RFU, ZNF268 / Fold change vs veh, ZNF268 / Fold change vs veh, ZNF507 / RFU, DGCR2 / Fold change vs veh, DGCR2 / RFU, WDSUB1 / Fold change vs veh, WDSUB1 / Fold change vs veh, HSP90B1 /// MIR3652 / RFU, ADSS / Fold change vs veh, ADSS / RFU, GK / Fold change vs veh, GK / RFU, ZNF148 / Fold change vs veh, ZNF148 / RFU, TAF9 / Fold change vs veh, TAF9 / RFU, SLC1A5 / Fold change vs veh, SLC1A5 / RFU, SLMO2 / Fold change vs veh, SLMO2 / RFU, ABCC4 / Fold change vs veh, ABCC4 / RFU, LOC101060439 /// RAP1B / Fold change vs veh, LOC101060439 /// RAP1B / RFU, RFX7 / Fold change vs veh, RFX7 / RFU, GTPBP10 / Fold change vs veh, GTPBP10 / RFU, CNEP1R1 / Fold change vs veh, CNEP1R1 / RFU, BIVM-ERCC5 /// ERCC5 / Fold change vs veh, BIVM-ERCC5 /// ERCC5 / RFU, ILF3 / Fold change vs veh, ILF3 / RFU 11762660_at / Fold change /veh 11762660_at / RFU VCAN (11757783_s_at) / Fold change /veh VCAN (11757783_s_at) / RFU DDX43 (11728927_at) / Fold change /veh DDX43 (11728927_at) / RFU KRT8 (11758188_x_at) / Fold change /veh KRT8 (11758188_x_at) / RFU NKD1 (11759106_at) / Fold change /veh NKD1 (11759106_at) / RFU SRD5A1 (11742802_a_at) / Fold change /veh SRD5A1 (11742802_a_at) / RFU TPSAB1 /// TPSB2 (11721975_s_at) / Fold change /veh TPSAB1 /// TPSB2 (11721975_s_at) / RFU GSTM3 (11746129_a_at) / Fold change /veh GSTM3 (11746129_a_at) / RFU IL23R (11737362_x_at) / Fold change /veh IL23R (11737362_x_at) / RFU TMEM51 (11727254_a_at) / Fold change /veh TMEM51 (11727254_a_at) / RFU PIWIL2 (11732686_x_at) / Fold change /veh PIWIL2 (11732686_x_at) / RFU ORM1 (11744905_x_at) / Fold change /veh ORM1 (11744905_x_at) / RFU CCDC152 (11743942_at) / Fold change /veh CCDC152 (11743942_at) / RFU ECM1 (11717891_a_at) / Fold change /veh ECM1 (11717891_a_at) / RFU IL23R (11748794_a_at) / Fold change /veh IL23R (11748794_a_at) / RFU TNFAIP8L3 (11732012_x_at) / Fold change /veh TNFAIP8L3 (11732012_x_at) / RFU MBOAT4 (11741988_at) / Fold change /veh MBOAT4 (11741988_at) / RFU 11764193_at / Fold change /veh 11764193_at / RFU TMEM53 (11763286_at) / Fold change /veh TMEM53 (11763286_at) / RFU MAGEB2 (11727129_at) / Fold change /veh MAGEB2 (11727129_at) / RFU TMEM200A (11744735_a_at) / Fold change /veh TMEM200A (11744735_a_at) / RFU CCDC152 (11751479_a_at) / Fold change /veh CCDC152 (11751479_a_at) / RFU FAM211A (11726209_a_at) / Fold change /veh FAM211A (11726209_a_at) / RFU RGS16 (11746705_a_at) / Fold change /veh RGS16 (11746705_a_at) / RFU VCAN (11755009_s_at) / Fold change /veh VCAN (11755009_s_at) / RFU RHOB (11743442_s_at) / Fold change /veh RHOB (11743442_s_at) / RFU RGS16 (11720943_a_at) / Fold change /veh RGS16 (11720943_a_at) / RFU RGS16 (11720944_at) / Fold change /veh RGS16 (11720944_at) / RFU, VPS4B / Fold change vs veh, VPS4B / RFU, CREB1 / Fold change vs veh, CREB1 / RFU, DNAJC13 / Fold change vs veh, DNAJC13 / RFU, GNAQ / Fold change vs veh, GNAQ / RFU, CDK5R1 / Fold change vs veh, CDK5R1 / RFU, ZRANB3 / Fold change vs veh, ZRANB3 / RFU, CUL4A / Fold change vs veh, CUL4A / RFU, CCNY / Fold change vs veh, CCNY / RFU, UFL1 / Fold change vs veh, UFL1 / RFU, COG3 / Fold change vs veh, COG3 / RFU, DIAPH2 / Fold change vs veh, DIAPH2 / RFU, SKA2 / Fold change vs veh, SKA2 / RFU, AFF3 / Fold change vs veh, AFF3 / RFU, LMF1 / Fold change vs veh, LMF1 / RFU, IPO11 / Fold change vs veh, IPO11 / RFU, DFFB / Fold change vs veh, DFFB / RFU, FOXP1 / Fold change vs veh, FOXP1 / RFU, CARD8 / Fold change vs veh, CARD8 / RFU, STRN3 / Fold change vs veh, STRN3 / RFU, ADK / Fold change vs veh, ADK / RFU, RASSF2 / Fold change vs veh, RASSF2 / RFU, WIPF1 / Fold change vs veh, WIPF1 / RFU, LARP1B / Fold change vs veh, LARP1B / RFU, RASA1 / Fold change vs veh, RASA1 / RFU, RB1 / Fold change vs veh, RB1 / RFU, PPFIA1 / Fold change vs veh, PPFIA1 / RFU, MAT2A / Fold change vs veh, MAT2A / RFU, CCT5 / Fold change vs veh, CCT5 / RFU, WDR92 / Fold change vs veh, WDR92 / RFU, CUX1 / Fold change vs veh, CUX1 / RFU, TTC7A / Fold change vs veh, TTC7A / RFU, TMEM135 / Fold change vs veh, TMEM135 / RFU, DEPTOR / Fold change vs veh, DEPTOR / RFU, CPM / Fold change vs veh, CPM / RFU, DNAJB6 / Fold change vs veh, DNAJB6 / RFU, CACNA2D3 / Fold change vs veh, CACNA2D3 / RFU, DTX4 / Fold change vs veh, DTX4 / RFU, TFCP2 / Fold change vs veh, TFCP2 / RFU, GMCL1 /// GMCL1P1 / Fold change vs veh, GMCL1 /// GMCL1P1 / RFU, AEBP2 / Fold change vs veh, AEBP2 / RFU, SNHG1 /// SNORD22 /// SNORD25 /// SNORD26 /// SNORD27 /// SNORD28 /// SNORD29 /// SNORD31 / Fold change vs veh, SNHG1 /// SNORD22 /// SNORD25 /// SNORD26 /// SNORD27 /// SNORD28 /// SNORD29 /// SNORD31 / Fold change (Aza/veh), C12orf56 (ProbeSet 11735607_a_at) / Fold change (ACY-1035/veh), C12orf56 (ProbeSet 11735607_a_at) / Fold change (Aza/veh), FGFR1OP (ProbeSet 11751329_s_at) / Fold change (ACY-1035/veh), FGFR1OP (ProbeSet 11751329_s_at) / Fold change (Aza/veh), VPS36 (ProbeSet 11739960_a_at) / Fold change (ACY-1035/veh), VPS36 (ProbeSet 11739960_a_at) / RFU SYPL1 (11715823_x_at) / Fold change /veh SYPL1 (11715823_x_at) / RFU IGFBP7 (11715501_s_at) / Fold change /veh IGFBP7 (11715501_s_at) / RFU REEP3 (11722064_at) / Fold change /veh REEP3 (11722064_at) / RFU IGLL1 (11728026_x_at) / Fold change /veh IGLL1 (11728026_x_at): dose or concentration left out as unconfirmed
# Conditions: MV-4-11 cells, 48 hours
compound,measurement,value
Nc1ccc(-c2cccs2)cc1NC(=O)c1ccc2c(c1)cc(C1CC1)n2CCN1CCOCC1 [ACY-1035],RFU FAM26E (11764081_at),5.59 RFU
